The text below walks through data of US12384740B2, “Cationic lipids and transfection methods” (Factor Bioscience Inc., priority 2019, dated 2025).

Common to all, as to assay type: cell-based
The test system of assay [1] is neonatal human epidermal keratinocytes (HEKn). As to the kind of experiment: Transfection of HEKn with GFP-encoding RNA complexed with lipid, mean fluorescence intensity per cell (Table 1). As to conditions: 20,000 HEKn per well, 24-well plate; 100 ng in vitro transcribed GFP RNA; 24 hours after transfection. The protocol: Stock solutions of lipid in ethanol were prepared at concentrations of between 5 mg/mL and 20 mg/mL and stored at −20° C. To perform transfections, nucleic acid was first diluted in DMEM (1 μg of nucleic acid in 50 μL of DMEM), then the desired amount of lipid stock solution was added. After adding the lipid, the solution was mixed thoroughly, and complexes were allowed to form for between about 5 minutes and about 25 minutes before adding to cells. For the experiments depicted in FIG. 1 through FIG. 6, the lipid was used without the acetone purification described in Example 5. Table 1 depicts the results of an experiment in which 20,000 neonatal human epidermal keratinocytes (HEKn) per well of a 24-well plate were transfected with 100 ng of in vitro transcribed RNA encoding green fluorescent protein (GFP) complexed with the indicated lipids. Fluorescence was measured 24 hours after transfection. Numbers indicate mean fluorescence intensity per cell (a.u.).

The test system of assay [2] is primary human epidermal keratinocytes. As to the kind of experiment: Transfection of primary human epidermal keratinocytes with GFP RNA in 100% FBS (FIG. 1, 2, 7). How it is done: (§1) FIG. 1 depicts primary human epidermal keratinocytes cultured in a 24-well plate, and transfected with 400 ng per well of in vitro transcribed RNA encoding green fluorescent protein (GFP) complexed with the indicated lipid and with the indicated mass ratio of lipid to RNA. Complexation was performed in DMEM, and transfections were performed in 100% fetal bovine serum (FBS). Images were taken eight hours following transfection.
FIG. 2 depicts the experiment of FIG. 1, with fluorescence measured at the indicated time points following transfection using DHDLinS.
FIG. 3 depicts the results of an experiment conducted as in FIG. 1, but with the indicated amounts of RNA (in nanograms) and the indicated lipid-to-RNA mass ratios (in micrograms of lipid per microgram of RNA). Images were taken 16 hours following transfection. As shown in the figure, all RNA amounts and lipid-to-RNA mass ratios tested yielded a fluorescent signal.
FIG. 7 depicts the results of an experiment conducted as in FIG. 3, but with DHDLinS purified by extraction with acetone as described in Example 5.
(§2) Stock solutions of lipid in ethanol were prepared at concentrations of between 5 mg/mL and 20 mg/mL and stored at −20° C. To perform transfections, nucleic acid was first diluted in DMEM (1 μg of nucleic acid in 50 μL of DMEM), then the desired amount of lipid stock solution was added. After adding the lipid, the solution was mixed thoroughly, and complexes were allowed to form for between about 5 minutes and about 25 minutes before adding to cells. For the experiments depicted in FIG. 1 through FIG. 6, the lipid was used without the acetone purification described in Example 5.

Assay [3] has as its system human peripheral blood mononuclear cells (hPBMCs). The assay can be described thus: Transfection of hPBMCs with GFP RNA (FIG. 4). Particulars: 400 ng GFP RNA; 100% FBS; images 16 hours following transfection; both lipid-to-RNA mass ratios tested. How it is done: as §1
FIG. 4 depicts the results of an experiment conducted as in FIG. 1, but with human peripheral blood mononuclear cells (hPBMCs) instead of keratinocytes. Images were taken 16 hours following transfection. “LF3000” indicates cells transfected with LIPOFECTAMINE 3000 (cationic liposome formulation) commercial transfection reagent. “Neg.” indicates un-transfected cells.
as §2

The test system of assay [4] is confluent layer of primary human epidermal keratinocytes. The assay can be described thus: Transfection of a confluent layer of primary human epidermal keratinocytes with GFP RNA (FIG. 5A/5B). As to conditions: 400 ng GFP RNA; 100% FBS; images 24 hours following transfection; both lipid-to-RNA mass ratios tested. The protocol: as §1
FIG. 5A depicts the results of an experiment conducted as in FIG. 4, but with a confluent layer of primary human epidermal keratinocytes instead of hPBMCs. Images were taken 24 hours following transfection.
FIG. 5B depicts the experiment of FIG. 5A, shown at higher magnification.
as §2

Assay [5] relates to primary human adult dermal fibroblasts. The assay can be described thus: Transfection of primary human adult dermal fibroblasts with GFP RNA (FIG. 6A/6B). Particulars: 400 ng GFP RNA; 100% FBS; images 16 hours following transfection; both lipid-to-RNA mass ratios tested. The protocol:
as §1
FIG. 6A depicts the results of an experiment conducted as in FIG. 4, but with primary human adult dermal fibroblasts instead of hPBMCs. Images were taken 16 hours following transfection.
FIG. 6B depicts the experiment of FIG. 6A, shown at higher magnification.
as §2

[6] abbreviates: time course of FIG. 1 experiment, 400 ng GFP RNA, 100% FBS.

For the molecule `CCCCC/C=C\C/C=C\CCCCCCCCN(CCCCN(CCCCCCCC/C=C\C/C=C\CCCCC)CC(O)CN)CC(O)CN` (centres unmarked) [DHDLinS, N^1,N^4-dilinoleyl-N^1,N^4-di-(2-hydroxy-3-aminopropyl)-diaminobutane], the “Fluorescence Intensity (mean fluorescence intensity per cell)” value in assay [1] is on record as 8009 a.u. For the same molecule, in assay [2] (400 ng GFP RNA per well, transfection in 100% FBS, images eight hours following transfection, lipid without acetone purification), the “Transfection efficiency (GFP fluorescence images)” value is on record as “transfected with high efficiency”. In addition, the “Change of fluorescence signal with lipid-to-RNA mass ratio” value in assay [2] (DHDLinS purified by extraction with acetone, lipid-to-RNA mass ratios greater than 2 μg/μg, images 16 hours following transfection) is listed as “minimal increase in fluorescence signal”. Moreover, in assay [2] (setting [6]), the “Signal intensity and number of fluorescent cells over time” value is recorded as “increased for several hours following transfection”; the “Time of first detection of fluorescent signal following transfection” value is given as “detected one hour following transfection”. In assay [3], the “Transfection of hPBMCs (GFP fluorescence images)” value is on record as “effectively transfected”. In addition, the “Transfection of confluent keratinocytes (GFP fluorescence images)” value in assay [4] is recorded as “effectively transfected”. Also, the “Transfection of dermal fibroblasts (GFP fluorescence images)” value in assay [5] is reported as “effectively transfected”.
As to `CCCCC/C=C\C/C=C\CCCCCCCCN(CCCCCN(CCCCCCCC/C=C\C/C=C\CCCCC)CC(O)CN)CC(O)CN` (centres unmarked) [Formula I (n = 5), N^1,N^5-dilinoleyl-N^1,N^5-di-(2-hydroxy-3-aminopropyl)-diaminopentane], the “Fluorescence Intensity (mean fluorescence intensity per cell)” value in assay [1] came out at 7554 a.u.
On the same count and under the same terms, as for `CCCCC/C=C\C/C=C\CCCCCCCCN(CCCCCCN(CCCCCCCC/C=C\C/C=C\CCCCC)CC(O)CN)CC(O)CN` (centres unmarked) [Formula I (n = 6), N^1,N^6-dilinoleyl-N^1,N^6-di-(2-hydroxy-3-aminopropyl)-diaminohexane], the figure is 8596 a.u; as for `CCCCC/C=C\C/C=C\CCCCCCCCN(CCCCCCCCN(CCCCCCCC/C=C\C/C=C\CCCCC)CC(O)CN)CC(O)CN` (centres unmarked) [Formula I (n = 8), N^1,N^8-dilinoleyl-N^1,N^8-di-(2-hydroxy-3-aminopropyl)-diaminooctane], 9170 a.u.
Regarding `CCCCC/C=C\C/C=C\CCCCCCCCN(CCCCCCCCCCN(CCCCCCCC/C=C\C/C=C\CCCCC)CC(O)CN)CC(O)CN` (centres unmarked) [Formula I (n = 10), N^1,N^10-dilinoleyl-N^1,N^10-di-(2-hydroxy-3-aminopropyl)-diaminodecane], in assay [1], the “Fluorescence Intensity (mean fluorescence intensity per cell)” value is 7842 a.u.
The same measure, in the same setting: as for `CCCCC/C=C\C/C=C\CCCCCCCCN(CCCCCCCCCCCCN(CCCCCCCC/C=C\C/C=C\CCCCC)CC(O)CN)CC(O)CN` (centres unmarked) [Formula I (n = 12), N^1,N^12-dilinoleyl-N,N^12-di-(2-hydroxy-3-aminopropyl)-diaminododecane], the figure is 5631 a.u; as for “N^1,N^2-dilinoleyl-N^1,N^2-di-(2-hydroxy-3-aminopropyl)-diaminoethane [Formula I (n = 2)]”, 6623 a.u.
